Measured values taken from US20070149446A1, “Tamandarin analogs and fragments thereof and methods of making and using” (The Trustees of the University of Pennsylvania Center for …, priority 2003, published 2007).
Starred links: 1 amine or outer side, 2 acyl side, 3 side chain; linkers in the order of their positions; H or OH if unused. Positions of bridges follow the written chain, without caps; N, C: chain ends. Non-standard residues stand in square brackets, D forms with d. Residues, ends and D or L forms follow the SMILES beside them. Hexanoyl(3S-OH,4R-NH2,5-Me) = CC(C)[C@@H](N[*:1])[C@@H](O)CC(=O)[*:2]; NMeY = CN[C@@H](Cc1ccc(O)cc1)C(=O)O; dNMeL = CN[C@H](CC(C)C)C(=O)O; Hiv = CC(C)[C@H](O)C(=O)O; Lac = C[C@H](O)C(=O)O

How the values were obtained:
SK-BR3 = assay: SRB colorimetric cell growth inhibition assay, SK-BR3
Experimental: (§1) This form of assay employs 96 well cell culture microplates of […] diameter (Faircloth, 1988; Mosmann, 1983). Most of the cell lines are obtained from American Type Culture Collection (ATCC) derived from different human cancer types.
(§2) Cells are maintained in RPMI 1640 10% FBS, supplemented with 0.1 g/l penicillin and 0.1 g/l streptomycin sulfate and then incubated at 37° C., 5% CO2 and 98% humidity. For the experiments, cells were harvested from subconfluent cultures using trypsin and resuspended in fresh medium before plating.
(§3) Cells are seeded in 96 well microtiter plates, at 5×10^3 cells per well in aliquots of 195 μl medium, and they are allowed to attach to the plate surface by growing in drug free medium for 18 hours. Afterward, samples are added in aliquots of 5 μl in a ranging from 10 to 10-8 μg/ml, dissolved in DMSO/EtOH/PBS (0.5:0.5:99). After 48 hours exposure, the antitumor effect are measured by the SRB methodology: cells are fixed by adding 50 μl of cold 50% (wt/vol) trichloroacetic acid (TCA) and incubated for 60 minutes at 4° C.
(§4) Plates are washed with deionised water and dried. One hundred μl of SRB solution (0.4% wt/vol in 1% acetic acid) is added to each microtiter well and incubated for 10 minutes at room temperature. Unbound SRB is removed by washing with 1% acetic acid. Plates are air dried and bound stain is solubilized with Tris buffer. Optical densities are read on a automated spectrophotometric plate reader at a single wavelength of 490 nm.
(§5) The values for mean+/−SD of data from triplicate wells are calculated.
(§6) Some parameters for cellular responses can be calculated: GI=growth inhibition, TGI=total growth inhibition (cytostatic effect) and LC=cell killing (cytotoxic effect).

LOVO = assay: SRB colorimetric cell growth inhibition assay, LOVO
Experimental: as §1, §2, §3, §4, §5, §6

PANC1 = assay: SRB colorimetric cell growth inhibition assay, PANC1
Experimental: as §1, §2, §3, §4, §5, §6

LN-caP = assay: SRB colorimetric cell growth inhibition assay, LN-caP
Experimental: as §1, §2, §3, §4, §5, §6

A549 = assay: SRB colorimetric cell growth inhibition assay, A549
Experimental: as §1, §2, §3, §4, §5, §6

K562 = assay: SRB colorimetric cell growth inhibition assay, K562
Experimental: as §1, §2, §3, §4, §5, §6

HT29 = assay: SRB colorimetric cell growth inhibition assay, HT29
Experimental: as §1, §2, §3, §4, §5, §6

HELA-APL = assay: SRB colorimetric cell growth inhibition assay, HELA-APL
Experimental: as §1, §2, §3, §4, §5, §6

IGROV-ET = assay: SRB colorimetric cell growth inhibition assay, IGROV-ET
Experimental: as §1, §2, §3, §4, §5, §6

LOVO-DOX = assay: SRB colorimetric cell growth inhibition assay, LOVO-DOX
Experimental: as §1, §2, §3, §4, §5, §6

HELA = assay: SRB colorimetric cell growth inhibition assay, HELA
Experimental: as §1, §2, §3, §4, §5, §6

SK-MEL-28 = assay: SRB colorimetric cell growth inhibition assay, SK-MEL-28
Experimental: as §1, §2, §3, §4, §5, §6

IGROV = assay: SRB colorimetric cell growth inhibition assay, IGROV
Experimental: as §1, §2, §3, §4, §5, §6

DU145 = assay: SRB colorimetric cell growth inhibition assay, DU145
Experimental: as §1, §2, §3, §4, §5, §6

[1] = Homo sapiens, 48 h, read-out: LC50

Q: With `COc1ccc(C[C@H]2C(=O)OC[C@H](NC(=O)[C@@H](CC(C)C)N(C)C(=O)[C@@H]3CCCN3C(=O)[C@H](C)O)C(=O)N[C@H](C(C)C)[C@@H](O)CC(=O)O[C@@H](C(C)C)C(=O)N[C@@H](CC(C)C)C(=O)N3CCC[C@H]3C(=O)N2C)cc1` [Compound 62, [N-Ser^6]-Tamandarin B] (H-[Lac]P[dNMeL]S[Hexanoyl(3S-OH,4R-NH2,5-Me)][Hiv]LP[NMeY](Me); ester 4-C) as the molecule, how does the GI50 (SK-BR3; Homo sapiens, SK-BR-3, 48 h) read?
A: 3.74 nM

Q: What about the CC50 (SK-BR3; Homo sapiens, SK-BR-3, 48 h, read-out: LC50) of the same molecule?
A: ≥ 9.73 µM

Q: And the TGI (SK-BR3; SK-BR3 cells, total growth inhibition, SRB, 48 hours exposure)?
A: 4.05E−08 Molar

Q: And the GI50 (LOVO; Homo sapiens, LoVo, 48 h)?
A: 38.9 nM

Q: And the CC50 (LOVO; Homo sapiens, LoVo, 48 h, read-out: LC50)?
A: 3.66 µM

Q: What about the TGI (LOVO; LOVO cells, total growth inhibition, SRB, 48 hours exposure) of the same molecule?
A: 2.31E−07 Molar

Q: What about the GI50 (PANC1; Homo sapiens, PANC-1, 48 h) of the same molecule?
A: 34.9 nM

Q: And the CC50 (PANC1; Homo sapiens, PANC-1, 48 h, read-out: LC50)?
A: ≥ 9.73 µM

Q: And the TGI (PANC1; PANC1 cells, total growth inhibition, SRB, 48 hours exposure)?
A: 8.82E−07 Molar

Q: What about the GI50 (LN-caP; Homo sapiens, LNCaP, 48 h) of the same molecule?
A: 2.71 nM

Q: And the CC50 (LN-caP; Homo sapiens, LNCaP, 48 h, read-out: LC50)?
A: 58.4 nM

Q: And the TGI (LN-caP; LN-caP cells, total growth inhibition, SRB, 48 hours exposure)?
A: 7.24E−09 Molar

Q: What about the TGI (A549; A549 cells, total growth inhibition, SRB, 48 hours exposure) of the same molecule?
A: 3.51E−07 Molar

Q: And the GI50 (A549; Homo sapiens, A549, 48 h)?
A: 51.5 nM

Q: What about the CC50 (A549; Homo sapiens, A549, 48 h, read-out: LC50) of the same molecule?
A: 2900 nM

Q: What about the GI50 (K562; Homo sapiens, K562, 48 h) of the same molecule?
A: 78 nM

Q: And the CC50 (K562; Homo sapiens, K562, 48 h, read-out: LC50)?
A: 2390 nM

Q: And the TGI (K562; K562 cells, total growth inhibition, SRB, 48 hours exposure)?
A: 3.03E−07 Molar

Q: And the TGI (HT29; HT29 cells, total growth inhibition, SRB, 48 hours exposure)?
A: 2.03E−07 Molar

Q: What about the GI50 (HT29; Homo sapiens, HT-29, 48 h) of the same molecule?
A: 23.7 nM

Q: And the CC50 (HT29; Homo sapiens, HT-29, 48 h, read-out: LC50)?
A: ≥ 9.73 µM

Q: And the TGI (HELA-APL; HELA-APL cells, total growth inhibition, SRB, 48 hours exposure)?
A: 5.41E−06 Molar

Q: And the GI50 (HELA-APL; Homo sapiens, 48 h)?
A: 411 nM

Q: And the CC50 (HELA-APL; [1])?
A: ≥ 9.73 µM

Q: And the GI50 (IGROV-ET; Homo sapiens, 48 h)?
A: 456 nM

Q: And the CC50 (IGROV-ET; [1])?
A: 6.95 µM

Q: And the TGI (IGROV-ET; IGROV-ET cells, total growth inhibition, SRB, 48 hours exposure)?
A: 1.90E−06 Molar

Q: And the GI50 (LOVO-DOX; Homo sapiens, 48 h)?
A: 2390 nM

Q: And the CC50 (LOVO-DOX; [1])?
A: ≥ 9.73 µM

Q: What about the TGI (LOVO-DOX; LOVO-DOX cells, total growth inhibition, SRB, 48 hours exposure) of the same molecule?
A: 8.40E−06 Molar

Q: And the TGI (HELA; HELA cells, total growth inhibition, SRB, 48 hours exposure)?
A: 2.61E−08 Molar

Q: What about the GI50 (HELA; Homo sapiens, HeLa, 48 h) of the same molecule?
A: 3.76 nM

Q: What about the CC50 (HELA; Homo sapiens, HeLa, 48 h, read-out: LC50) of the same molecule?
A: 368 nM

Q: What about the GI50 (SK-MEL-28; Homo sapiens, SK-MEL-28, 48 h) of the same molecule?
A: 16.6 nM

Q: What about the CC50 (SK-MEL-28; Homo sapiens, SK-MEL-28, 48 h, read-out: LC50) of the same molecule?
A: 675 nM

Q: And the TGI (SK-MEL-28; SK-MEL-28 cells, total growth inhibition, SRB, 48 hours exposure)?
A: 8.24E−08 Molar

Q: What about the GI50 (IGROV; Homo sapiens, IGROV, 48 h) of the same molecule?
A: 1990 nM

Q: What about the CC50 (IGROV; Homo sapiens, IGROV, 48 h, read-out: LC50) of the same molecule?
A: 9.84 µM

Q: What about the TGI (IGROV; IGROV cells, total growth inhibition, SRB, 48 hours exposure) of the same molecule?
A: 5.29E−06 Molar

Q: And the TGI (DU145; DU145 cells, total growth inhibition, SRB, 48 hours exposure)?
A: 2.49E−08 Molar

Q: And the GI50 (DU145; Homo sapiens, DU-145, 48 h)?
A: 6.79 nM

Q: And the CC50 (DU145; Homo sapiens, DU-145, 48 h, read-out: LC50)?
A: 82.6 nM
